Laboratory results reported in US11020397B2, “Compounds and their use for reducing uric acid levels” (Acquist LLC, priority 2016, dated 2021).
Where two headings read alike, the source gives them in different places.

Target: Xanthine oxidase (Homo sapiens (Human), UniProt P47989)
Assay: Fluorescence-based xanthine oxidase activity assay
Type: biochemical
Details: for Xanthine oxidase inhibition, verbal rating: compared to allopurinol
[1] = unit nM, read-out: Xanthine Oxidase IC50

Xanthine oxidase, sequence (P47989 whole entry, species assumed): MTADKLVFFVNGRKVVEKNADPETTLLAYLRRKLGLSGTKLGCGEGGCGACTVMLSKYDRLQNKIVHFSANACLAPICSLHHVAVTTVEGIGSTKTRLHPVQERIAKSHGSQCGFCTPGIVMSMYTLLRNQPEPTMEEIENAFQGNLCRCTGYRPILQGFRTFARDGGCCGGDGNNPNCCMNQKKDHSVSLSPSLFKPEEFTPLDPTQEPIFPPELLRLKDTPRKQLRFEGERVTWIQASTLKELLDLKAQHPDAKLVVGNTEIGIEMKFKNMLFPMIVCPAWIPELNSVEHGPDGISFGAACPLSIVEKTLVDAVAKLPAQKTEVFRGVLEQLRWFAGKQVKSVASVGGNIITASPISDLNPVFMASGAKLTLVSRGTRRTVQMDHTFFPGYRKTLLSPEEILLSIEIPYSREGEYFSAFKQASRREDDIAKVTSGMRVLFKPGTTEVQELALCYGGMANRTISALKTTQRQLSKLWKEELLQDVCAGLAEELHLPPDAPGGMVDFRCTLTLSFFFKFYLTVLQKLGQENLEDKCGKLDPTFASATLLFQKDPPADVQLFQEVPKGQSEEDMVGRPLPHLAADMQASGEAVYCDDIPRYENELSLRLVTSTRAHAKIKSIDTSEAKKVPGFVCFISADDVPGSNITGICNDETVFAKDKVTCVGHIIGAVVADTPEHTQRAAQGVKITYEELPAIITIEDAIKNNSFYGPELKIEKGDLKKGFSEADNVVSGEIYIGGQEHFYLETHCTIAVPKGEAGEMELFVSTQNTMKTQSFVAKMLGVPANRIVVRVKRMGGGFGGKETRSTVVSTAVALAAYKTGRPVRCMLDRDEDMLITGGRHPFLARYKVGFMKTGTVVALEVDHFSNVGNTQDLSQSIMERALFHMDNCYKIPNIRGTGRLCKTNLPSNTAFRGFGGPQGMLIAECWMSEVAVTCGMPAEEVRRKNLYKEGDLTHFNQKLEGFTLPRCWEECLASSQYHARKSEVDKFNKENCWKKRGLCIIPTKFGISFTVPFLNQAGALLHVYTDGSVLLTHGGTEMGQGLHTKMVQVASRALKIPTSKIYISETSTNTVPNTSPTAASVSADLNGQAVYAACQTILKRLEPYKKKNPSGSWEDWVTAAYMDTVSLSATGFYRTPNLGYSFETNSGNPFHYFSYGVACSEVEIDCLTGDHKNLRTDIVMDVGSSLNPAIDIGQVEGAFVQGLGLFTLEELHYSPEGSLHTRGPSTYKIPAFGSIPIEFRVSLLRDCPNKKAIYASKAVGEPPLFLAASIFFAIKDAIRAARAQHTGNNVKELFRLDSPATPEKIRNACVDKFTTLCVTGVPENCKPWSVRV

Row | Structure (SMILES) | IC50 [nM] | Xanthine oxidase inhibition, verbal rating | IC50 [1] [nM]
1 | CCSc1nc(O)c(C(=O)Nc2ccc(-c3nn[nH]n3)cc2)c(=O)[nH]1 [Formula (IIp), N-(4-(1H-tetrazol-5-yl)phenyl)-2-(ethylthio)-4-hydroxy-6-oxo-1,6-dihydropyrimidine-5-carboxamide] | 200 | particularly potent inhibitors of xanthine oxidase compared to allopurinol | 
2 | CSc1nc(O)c(C(=O)Nc2ccc3nc(-c4c[nH]nn4)ccc3c2)c(=O)[nH]1 [Formula (II10), N-(2-(1H-1,2,3-triazol-4-yl)quinolin-6-yl)-4-hydroxy-2-(methylthio)-6-oxo-1,6-dihydropyrimidine-5-carboxamide] | 190 |  | 
3 | O=C(Nc1ccc(-c2c[nH]nn2)cc1)c1c(O)nc(SC(F)(F)F)[nH]c1=O [Formula (IIj)] |  |  | > 300000
4 | CCSc1nc(O)c(C(=O)Nc2ccc(-c3c[nH]nn3)cc2)c(=O)[nH]1 [Formula (IIl), N-(4-(1H-1,2,3-triazol-4-yl)phenyl)-2-(ethylthio)-4-hydroxy-6-oxo-1,6-dihydropyrimidine-5-carboxamide] |  | particularly potent inhibitors of xanthine oxidase compared to allopurinol | < 20
5 | CC(C)Sc1nc(O)c(C(=O)Nc2ccc(-c3c[nH]nn3)cc2F)c(=O)[nH]1 [Formula (IIv), N-(2-Fluoro-4-(1H-1,2,3-triazol-4-yl)phenyl)-4-hydroxy-2-(isopropylthio)-6-oxo-1,6-dihydropyrimidine-5-carboxamide] | 100 |  | 
6 | CSc1nc(O)c(C(=O)Nc2ccc(-c3c[nH]nn3)cc2C#N)c(=O)[nH]1 [Formula (II5), N-(2-cyano-4-(1H-1,2,3-triazol-4-yl)phenyl)-4-hydroxy-2-(methylthio)-6-oxo-1,6-dihydropyrimidine-5-carboxamide] | 40 |  | 
7 | CSc1nc(O)c(C(=O)Nc2ncc(-c3c[nH]nn3)cc2C(F)(F)F)c(=O)[nH]1 [Formula (II8), N-(5-(1H-1,2,3-triazol-4-yl)-3-(trifluoromethyl)pyridin-2-yl)-4-hydroxy-2-(methylthio)-6-oxo-1,6-dihydropyrimidine-5-carboxamide] | 60 |  | 
8 | O=C(Nc1ccc(-c2c[nH]nn2)cc1)c1c(O)nc(SCC2CC2)[nH]c1=O [Formula (IIo), N-(4-(1H-1,2,3-triazol-4-yl)phenyl)-2-((cyclopropylmethyl)thio)-4,6-dioxo-1,4,5,6-tetrahydropyrimidine-5-carboxamide] | 1140 |  | 
9 | CSc1nc(O)c(C(=O)Nc2ccc(-c3c[nH]nn3)nc2)c(=O)[nH]1 [Formula (IIii), N-(6-(1H-1,2,3-triazol-4-yl)pyridin-3-yl)-4-hydroxy-2-(methylthio)-6-oxo-1,6-dihydropyrimidine-5-carboxamide] | 377 | particularly potent inhibitors of xanthine oxidase compared to allopurinol | 
10 | CSc1nc(O)c(C(=O)Nc2c(F)cc(-c3c[nH]nn3)cc2F)c(=O)[nH]1 [Formula (IIt), N-(2,6-Difluoro-4-(1H-1,2,3-triazol-4-yl)phenyl)-4-hydroxy-2-(methylthio)-6-oxo-1,6-dihydropyrimidine-5-carboxamide] | 180 | particularly potent inhibitors of xanthine oxidase compared to allopurinol | 
11 | CC(C)Sc1nc(O)c(C(=O)Nc2ccc(-c3c[nH]nn3)cc2C(F)(F)F)c(=O)[nH]1 [Formula (II7), N-(4-(1H-1,2,3-Triazol-5-yl)-2-(trifluoromethyl)phenyl)-4-hydroxy-2-(isopropyl-thio)-6-oxo-1,6-dihydropyrimidine-5-carboxamide] | 70 |  | 
12 | CSc1nc(O)c(C(=O)Nc2ccc(-c3c[nH]nn3)c(C(F)(F)F)c2)c(=O)[nH]1 [Formula (II6), N-(4-(1H-1,2,3-Triazol-4-yl)-3-(trifluoromethyl)phenyl)-4-hydroxy-2-(methylthio)-6-oxo-1,6-dihydropyrimidine-5-carboxamide] |  |  | > 10000
13 | CSc1nc(O)c(C(=O)Nc2ccc(-c3c[nH]nn3)cc2OC(F)F)c(=O)[nH]1 [Formula (II4), N-(2-(difluoromethoxy)-4-(1H-1,2,3-triazol-4-yl)phenyl)-4-hydroxy-2-(methylthio)-6-oxo-1,6-dihydropyrimidine-5-carboxamide] | 60 |  | 
14 | CSc1nc(O)c(C(=O)Nc2ccc(-c3c[nH]nn3)c(F)c2F)c(=O)[nH]1 [Formula (IIaa), N-(2,3-difluoro-4-(1H-1,2,3-triazol-4-yl)phenyl)-4,6-dihydroxy-2-(methylthio) pyrimidine-5-carboxamide] | 103 |  | 
15 | CC(C)Sc1nc(O)c(C(=O)Nc2ccc(-c3c[nH]nn3)c(F)c2)c(=O)[nH]1 [Formula (IIw), N-(3-Fluoro-4-(1H-1,2,3-triazol-4-yl)phenyl)-4-hydroxy-2-(isopropylthio)-6-oxo-1,6-dihydropyrimidine-5-carboxamide] | 660 |  | 
16 | O=C(Nc1ncc(-c2c[nH]nn2)s1)c1c(O)[nH]c(=O)[nH]c1=O [Formula (Io), N-(5-(1H-1,2,3-Triazol-4-yl)thiazol-2-yl)-2,4,6-trihydroxypyrimidine-5-carboxamide] | 5300 |  | 
17 | CSc1nc(O)c(C(=O)Nc2ccc(-c3c[nH]nn3)cc2F)c(=O)[nH]1 [Formula (IIs), N-(2-Fluoro-4-(1H-1,2,3-triazol-4-yl)phenyl)-4-hydroxy-2-(methylthio)-6-oxo-1,6-dihydropyrimidine-5-carboxamide] | 120 | particularly potent inhibitors of xanthine oxidase compared to allopurinol | 
18 | CSc1nc(O)c(C(=O)Nc2ccc(-c3c[nH]nn3)cc2OC(F)(F)F)c(=O)[nH]1 [Formula (II3), N-(4-(1H-1,2,3-triazol-4-yl)-2-(trifluoromethoxy)phenyl)-4-hydroxy-2-(methylthio)-6-oxo-1,6-dihydropyrimidine-5-carboxamide] | 60 |  | 
19 | CSc1nc(O)c(C(=O)Nc2ccc(-c3c[nH]nn3)c(F)c2)c(=O)[nH]1 [Formula (IIr), N-(3-Fluoro-4-(1H-1,2,3-triazol-4-yl)phenyl)-4-hydroxy-2-(methylthio)-6-oxo-1,6-dihydropyrimidine-5-carboxamide] | 210 | particularly potent inhibitors of xanthine oxidase compared to allopurinol | 
20 | CC(C)CSc1nc(O)c(C(=O)Nc2ccc(-c3c[nH]nn3)cc2)c(=O)[nH]1 [Formula (IIq), N-(4-(1H-1,2,3-triazol-4-yl)phenyl)-4-hydroxy-2-(isobutylthio)-6-oxo-1,6-dihydropyrimidine-5-carboxamide] | 40 | particularly potent inhibitors of xanthine oxidase compared to allopurinol | 
21 | CC(C)Sc1nc(O)c(C(=O)Nc2ccc(-c3c[nH]nn3)cc2)c(=O)[nH]1 [Formula (IIi), N-(4-(1H-1,2,3-triazol-5-yl)phenyl)-4-hydroxy-2-(isopropylthio)-6-oxo-1,6-dihydropyrimidine-5-carboxamide] |  | particularly potent inhibitors of xanthine oxidase compared to allopurinol | < 20
22 | CN(C)CCSc1nc(O)c(C(=O)Nc2ccc(-c3c[nH]nn3)cc2F)c(=O)[nH]1 [Formula (IIbb), 2-((2-(dimethylamino)ethyl)thio)-N-(2-fluoro-4-(1H-1,2,3-triazol-4-yl)phenyl)-4-hydroxy-6-oxo-1,6-dihydropyrimidine-5-carboxamide] | 206 |  | 
